In ChEMBL document CHEMBL1938378, “Synthesis and evaluation of tetrahedral intermediate mimic inhibitors of 3-deoxy-d-manno-octulosonate 8-phosphate synthase” (Bioorg Med Chem Lett, 2012):

Legend:
[1] = target: 2-dehydro-3-deoxyphosphooctonate aldolase (Neisseria meningitidis serogroup B (strain MC58), UniProt Q9JZ55); assay: Competitive inhibition of Neisseria meningitidis serotype B strain MC58 ATCC BAA355 KDO8P synthase expressed in Escherichia coli BL21 (DE3) cells using PEP as substrate after 10 to 15 mins by Michaelis-Menten equation
2-dehydro-3-deoxyphosphooctonate aldolase, sequence (Q9JZ55 whole entry): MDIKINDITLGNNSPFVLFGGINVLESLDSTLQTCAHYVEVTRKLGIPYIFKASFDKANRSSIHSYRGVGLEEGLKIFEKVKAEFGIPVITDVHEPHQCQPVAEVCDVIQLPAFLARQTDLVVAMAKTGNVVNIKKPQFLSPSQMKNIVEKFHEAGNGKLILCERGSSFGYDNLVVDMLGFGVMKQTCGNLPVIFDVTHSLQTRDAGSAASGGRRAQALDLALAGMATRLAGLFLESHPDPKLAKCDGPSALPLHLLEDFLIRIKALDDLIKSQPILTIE

[2] = Competitive inhibition of Acidithiobacillus ferrooxidans KDO8P synthase using PEP as substrate after 10 to 15 mins by Michaelis-Menten equation
[3] = Inhibition of Escherichia coli KDO8P
[4] = Inhibition of Helicobacter pylori KDO8P

Compound | Ki [1] [µM] | Ki [2] [µM] | Ki [3] [µM] | IC50 [4] [µM]
C[C@H](OP(=O)(O)O)C(=O)O | 1200 | 1000 | – | –
O=C(O)C(CCCCCCOP(=O)(O)O)OP(=O)(O)O (centres undefined) | 7.9 | 20 | – | –
O=C(O)CN(C[C@@H](O)[C@@H](O)[C@H](O)[C@H](O)COP(=O)(O)O)CP(=O)(O)O | – | – | 0.37 | 132
C[C@@H](OP(=O)(O)O)C(=O)O | 870 | 390 | – | –
O=C(O)C(CCCCCCO)OP(=O)(O)O (centres undefined) | 1000 | 540 | – | –
O=C(O)C(O)CCCCCCOP(=O)(O)O (centres undefined) | 270 | 190 | – | –
O=C(O)CNCP(=O)(O)O [GLYPHOSATE] | 260 | 330 | – | –
